Assay results as given in publication PMC10938439, “C-3 Steroidal Hemiesters as Inhibitors of 17β-Hydroxysteroid Dehydrogenase Type 10” (ACS Omega, 2024).
Several values for one entry are separate records, joined by “and”; a condition that tells them apart may be missing. Equal values may be shown once.

Assays:
17β-HSD10 [1] = biological target: T1, 17β-HSD10 (Homo sapiens, UniProt Q99714); test: Inhibition of allopregnanolone to 5α-dihydroprogesterone transformation by recombinant 17β-HSD10; format: biochemical; settings: 20 μM allopregnanolone as substrate; mean ± SEM (n = 4)
T1 construct: inferred from Ni-NTA purification with imidazole elution; made in house; host or cells: E. coli BL21 (DE3)
T1 sequence (Q99714 1-261): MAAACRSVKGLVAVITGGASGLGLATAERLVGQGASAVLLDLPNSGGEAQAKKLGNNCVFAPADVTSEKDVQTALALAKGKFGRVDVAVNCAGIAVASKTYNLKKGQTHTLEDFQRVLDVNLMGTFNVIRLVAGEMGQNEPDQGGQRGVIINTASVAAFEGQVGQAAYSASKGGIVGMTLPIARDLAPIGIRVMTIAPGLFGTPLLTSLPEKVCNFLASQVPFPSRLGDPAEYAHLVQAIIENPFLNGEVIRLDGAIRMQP
Protocol: Compound 23 (5 mM stock solution) was diluted with DMSO to the working concentrations. DMSO was used as vehicle control. The enzyme activity was determined as described in the previous section; the only difference was the replacement of 25 μM 17β-estradiol with 20 μM allopregnanolone as 17β-HSD10 substrate. For IC50 value determination, dose–response inhibition at 10 different concentrations of inhibitor (0.16–33.75 μM) was determined, and the data were analyzed by GraphPad Prism 8.4.3 (GraphPad Software Inc.). All measurements were performed in a tetraplicate.

HEK-293 cells = test: CellTiter-Glo luminescent cell viability assay; format: cell-based; settings: HEK-293, 1, 10 and 20 μM
Protocol: Finally, because the strongest inhibitor identified in vitro compound 23 has a favorable permeability coefficient, its potency to inhibit 17β-HSD10 also at the cellular level was determined. First, it was necessary to exclude the possibility that higher concentrations of compound 23 could be unfavorable to cells. The effects of compound 23 on the cellular viability and cytotoxicity of this compound (1, 10, and 20 μM) were determined using CellTiter-Glo Viability Assay and CellTox Green Assay, respectively, on HEK-293 cell line.
HEK-293 cells in DMEM (Capricorn) were supplemented with fetal bovine serum (10%, Gibco), L-glutamine (2 mM, Lonza), and nonessential amino acid additives (Gibco). Cells were maintained at 37 °C under a humidified atmosphere of 5% CO2. Compound 23 was tested on the HEK-293 cell line on cell viability using CellTox Green (G8741, Promega) and the CellTiter-Glo 2.0 kit (G9241, Promega), respectively, to establish their cytotoxic effect. Using a Tecan Spark 10 M instrument, the measurements were performed as end point methods in the multiplex. For multiplex measurement, 7500 cells were seeded per well in 50 μL of culture media and cultured for 24 h before the addition of selected compounds. […] Next, the CellTiter-Glo Luminescent Cell Viability Assay with an integration time of 500 ms was determined.

17β-HSD10 [2] = biological target: T1, 17β-HSD10; test: Inhibition of 17β-estradiol to estrone transformation by purified recombinant 17β-HSD10 (NADH fluorescence); format: biochemical; settings: purified recombinant 17β-HSD10, 17β-estradiol as substrate; means ± SEM (n = 4)
Protocol: As standards, we used the known inhibitor AG18051 as the positive control and the published steroidal compounds,[18] namely, pregnenolone, testosterone, dihydrotestosterone, androsterone, epiandrosterone, and dehydroepiandrosterone.
17β-HSD10 was performed as described previously.[11] Briefly, the autoinduction and overexpression were performed at 25 °C for 18 h in the E. coli BL21 (DE3) strain. The bacterial pellet was resuspended in lysis buffer that consisted of sodium phosphate buffer ([…]), NaCl (150 mM), and imidazole (10 mM, pH 8.0) with 1 mg/mL lysozyme and benzonase (150 U/mL). cOmplete EDTA-free protease inhibitor cocktail was incubated for 20 min on ice and then sonicated (12 × 10 s pulses with 30 s pauses). The supernatant was applied to the Ni-NTA agarose resin after centrifugation (16 000g, 10 min, 4 °C). Then, the solution was incubated on ice for 1 h with gentle stirring.
The standard steroids were screened at 1 and 10 μM concentrations, and the tested compounds and standard AG18051 were screened at 10 μM concentration. For compounds with at least 50% inhibition of 17β-HSD10, the IC50 values were determined.
Steroid stock solutions (5 mM) were further diluted with DMSO to the working concentrations. DMSO was used as a vehicle control, and AG18051 was used as a control inhibitor. The enzyme activity was determined fluorometrically at 37 °C in the activity assay buffer [100 mM potassium phosphate buffer (pH 8.0)]. The general reaction mixture (200 μL per well) consisted of 17β-estradiol (25 μM, DMSO), NAD+ (500 μM, deionized water), recombinant 17β-HSD10 (45 nM), and different concentrations of inhibitor (2.2% (v/v) final concentration of DMSO as solvent). Before the addition of substrate, the reaction mixture of enzyme, cofactor, and inhibitor in the assay buffer was preincubated for 5 min at 37 °C. The increase of fluorescence (Ex/Em = 340/460 nm) due to the formation of NADH was monitored for 20 min (30 s intervals). For IC50 value determination, dose–response inhibition at 11 different concentrations of inhibitor (0.6–33.75 μM) was determined and the data were analyzed by GraphPad Prism 8.4.3 (GraphPad Software Inc.). All measurements were performed in a tetraplicate.

17β-HSD10 [3] = biological target: T1, 17β-HSD10; test: Inhibition type determination with respect to substrate 17β-estradiol (Hanes–Woolf plot); format: biochemical; settings: compound at 3, 6 and 9 μM, 17β-estradiol 12.5–75 μM, NAD+ 500 μM
Protocol: The uninhibited enzymatic reaction (0 μM 23) was compared with the enzymatic reaction at three concentrations of compound 23 (3, 6, and 9 μM) using 17β-estradiol as the substrate. […] Such inhibitor binds the enzyme preventing the formation of the enzyme–substrate complex. […] This hypothesis was confirmed by the kinetic experiment. The obtained data were linearized by using Hanes–Woolf plot (Figure 2).
The type of inhibition of compound 23 was determined with respect to the substrate 17β-estradiol. The inhibitor was determined at three different concentrations (3, 6, and 9 μM) in combination with different concentrations of 17β-estradiol (12.5–75 μM) and a saturated NAD^+ concentration (500 μM). As vehicle control, DMSO was used. The obtained data were analyzed using GraphPad Prism 8.4.3 (GraphPad Software Inc.). All measurements were performed in triplicate.

Caco-2 cells = tested on: Caco-2 cells; parameters: method as in PMID 30296546; settings: cited from earlier work

For `C[C@@]12CCC[C@H]1[C@@H]1CC=C3C[C@@H](OC(=O)CCCCC(=O)O)CC[C@]3(C)[C@H]1CC2` [Compound 23, Androst-5-en-3β-yl Hemiadipate], the IC50 (17β-HSD10 [1]) was ~15.2 µM and 15.2 µM, the “cellular viability (CellTiter-Glo)” value (HEK-293 cells) was “does not influence HEK-293 viability” and the IC50 (17β-HSD10 [2]) was ~5.59 µM and 5.59 µM. The type of inhibition (17β-HSD10 [3]) was “competitive” and the “Caco-2 cell permeability (50 μM) Papp” value (Caco-2 cells) was 3.1 × 10^–6 cm/s.
